Results from patent US20260285847A1, “SYMMETRIC AMINOINDOLE-LINKED TRIAZINE FOR A DUAL EFFECT ON ALPHA-SYNUCLEIN AND TAU ISOFORM 2N4R FIBRILLIZATION” (Purdue Research Foundation, priority 2023, published 2026).

Target: T1, alpha-synuclein (α-syn) (Homo sapiens, UniProt P37840)
T1 construct: purchased rPeptide
Assay: Thioflavin T (ThT) fluorescence assay of α-syn fibril formation
Assay type: biochemical
Settings: compound 100 μM
Method: Thioflavin fluorescence assays. Thioflavin fluorescence assays were used to monitor fibril formation of recombinant α-syn, tau isoform 2N4R, treated with control DMSO and different compounds. Kinetics of α-syn fibrillization were performed using thioflavin T (ThT) as published previously.^32′ ^37 The fluorescence emission experiments were performed with the excitation and emission wavelengths set at 440 and 485 nm, respectively, with a Synergy HT multi-mode microplate reader (BioTek, Winooski, VT). Samples were measured in three replicates and the experiments were repeated three times using at least two different stock solutions. For each time point, arbitrary units of fluorescence were calculated from the mean values normalized against the maximum value in each completed assay. All results contained in FIG. 1 were presented as mean±SEM.
FIG. 1. Chemical structure, physicochemical descriptors, and the effect of compounds on alpha-synuclein (α-syn) aggregation measured as fluorescence intensity using ThT assay. TPSA, Log P, and Log D were obtained with SwissADME. BBB and pKa were obtained from the Blood-Brain Barrier Prediction Server (https://www.cbligand.org/BBB/) and Chemaxon, respectively. CNS MPO scores were assessed as published previously, The ThT (%) represent the maximum fluorescence intensity obtained at the plateau phase of the kinetics of fibrillization using 6.25 μM of α-syn. Compounds were tested at 100 μM (molar ratio 1:16). BBB, blood-brain barrier; C log D, calculated distribution coefficient at 7.4; C log P, calculated partition coefficient; CNS MPO, Central Nervous System Multi Parameter Optimization; HBA, Hydrogen Bond Acceptor; HBD, Hydrogen Bond Donor; LR5, Lipinski's rule of five; pKa, negative log of acid dissociation constant; ThT, Thioflavin T; TPSA, Topological polar surface area.

With `c1cc(Nc2ncnc(Nc3cccc4[nH]ccc34)n2)c2cc[nH]c2c1` [Compound 10, N2,N4-bis(1H-indol-4-yl)-1,3,5-triazine-2,4-diamine] the “lag time of α-syn fibril elongation” value (α-syn 6 μM) was “delayed slightly the lag time” and the activity at 100 µM (α-syn 6.25 μM (molar ratio 1:16), compared with DMSO control, mean±SEM, read-out: ThT fluorescence intensity (FI), maximum at the plateau phase of α-syn fibrillization) was 13.5 ± 1.7%.
